Data as given in PubChem BioAssay (NCI).
“And” between values parts separate entries of the source, which are not always exact repeats. Equal entries are not always repeated.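 The compound was tested at five concentrations on cells cultured in 96-well plates, with a 48-hour exposure period. GI50 marks 50% less growth. TGI is the concentration that stops growth completely.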

Legend:
Test in all cases: DTP human tumour cell line panel, 48 h
[1] = test system: SF-539 CNS
[2] = test system: SNB-19 CNS
[3] = test system: HCT-15 colon
[4] = test system: M14 melanoma
[5] = test system: LOX IMVI melanoma
[6] = test system: SW-620 colon
[7] = test system: A498 renal
[8] = test system: SN12C renal
[9] = test system: SK-MEL-2 melanoma
[10] = test system: RXF 393 renal

Row | SMILES | TGI [1] [µM] | TGI [2] [µM] | TGI [3] [µM] | TGI [4] [µM] | TGI [5] [µM] | TGI [6] [µM] | TGI [7] [µM] | TGI [8] [µM] | TGI [9] [µM] | GI50 [1] | GI50 [2] [µM] | GI50 [3] | GI50 [4] [µM] | GI50 [5] | GI50 [6] [µM] | GI50 [9] | GI50 [7] [µM] | GI50 [8] | TGI [10] [µM] | GI50 [10]
1 | CC(CC(=O)N1C(=O)C(C)(C)[C@@H](O)[C@H]1CC(C)C(Cl)(Cl)Cl)C(Cl)(Cl)Cl (stereo partly specified) | > 100 | > 100 | > 100 | > 100 | > 100 | > 100 | > 100 | > 100 |  |  |  |  |  |  |  |  |  |  |  | 
2 | COc1cc(-c2nccc3cc(OC)c(OC)cc23)ccc1O | > 100 | > 100 | 96.1 | > 100 | > 100 | > 100 |  | > 100 | > 100 |  |  |  |  |  |  |  |  |  |  | 
3 | CC1=CC(C)=NN=C(N)N1S(=O)(=O)c1cc(C)c(Cl)cc1SCc1ccccc1 | > 100 | > 100 | > 100 | > 100 | > 100 | > 100 | > 100 | > 100 | > 100 | > 100 µM | 30.3 | 7.86 µM | 21.4 | 58.4 µM | 24.8 | 37.2 µM | > 100 | 32.2 µM |  | 
4 | COc1cc(Oc2c(C)c(Cl)c(OC)c(Cl)c2OC)c2c(c1Cl)COC2=O | > 100 | > 100 | > 100 | > 100 | > 100 | > 100 | > 100 | 59.7 |  |  |  |  |  |  |  |  |  |  | > 100 | 
5 | CCC[CH2][Sn]([CH2]CCC)([O]c1cccc2cccnc12)[O]c1cccc2cccnc12 | 0.514 | 0.873 | 0.339 | 0.369 | 0.313 | 0.429 | 3.31 | 0.403 |  | 0.219 µM | 0.312 | 0.167 µM | 0.186 | 0.162 µM | 0.179 |  | 1.75 | 0.177 µM |  | 
6 | O=C1C(Cl)=C(Nc2ccc(Nc3ccccc3)c(NC3=C(Cl)C(=O)c4ccccc4C3=O)c2)C(=O)c2ccccc21 | 24.2 | 59.4 | > 100 | > 100 | > 100 |  | 14.4 | 13.7 |  | 3.43 µM | 4.34 | 3.46 µM | 4.55 | 4.12 µM |  |  | 0.875 | 2.97 µM | 14.2 | 3.09 µM
7 | Cc1ccc(Nc2nccc(N(C)c3ccc4c(C)n(C)nc4c3)n2)cc1S(N)(=O)=O |  | > 100 | > 100 |  |  | > 100 |  | > 100 |  | 0.589 µM and 1.5 µM |  | 4.04 µM and 2.77 µM and 5.98 µM |  | 2.88 µM and 0.479 µM and 3.93 µM |  | 4.67 µM and 1.46 µM and 4.62 µM |  | 3.77 µM and 2.65 µM and 6.38 µM |  | 2.43 µM and 0.634 µM and 2.41 µM
8 | O=S(=O)(CCN1CCOCC1)Nc1cc(-c2ccc3ncnc(Nc4ccc(F)c(Cl)c4)c3c2)cnc1Cl | 2.69 | 4.85 | 28.9 | 9.42 | 3.15 | 15.8 |  | > 100 |  | 0.418 µM | 0.453 | 1.23 µM | 0.754 | 0.414 µM | 1.3 |  |  | 0.391 µM | 1.35 | 0.239 µM
9 | COc1ccc(/C=C2\CN(C(=O)C(Cl)Cl)C/C(=C\c3ccc(OC)cc3)C2=O)cc1 |  |  | 1.52 |  | 0.766 | 1.78 |  |  |  |  |  | 0.337 µM |  | 0.251 µM | 0.351 |  |  |  | 2.37 | 1.11 µM
10 | NC(=NCc1ccccc1)C(N=Nc1ccccc1)C(=O)NCc1ccccc1 (stereo unspecified) | 37.1 | 31.5 | 67.3 | 22.3 | 24.3 | 3.62 | 23 | 87 |  | 16.6 µM | 13.2 | 8.19 µM | 5.71 | 8.36 µM | 1.83 |  | 6.17 | 22.6 µM | 27 | 12.9 µM
11 | O=c1[nH]c2ccccc2c2nc3ccccc3n12 | 69.1 | > 100 | > 100 | > 100 | > 100 | > 100 | > 100 | > 100 |  |  |  |  |  |  |  |  |  |  | > 100 | 
12 | COC(=O)C1=C(O)[C@H](C(=O)OC)C2(O)C(C(=O)OC)[C@H](c3ccc(OC(=O)C(C)c4ccccc4)cc3)C[C@@H]1[C@@H]2C(=O)OC (stereo partly specified) | 34.1 | > 50 | > 50 | > 50 | 16.2 | > 50 |  | > 50 | > 50 | 11.8 µM | 23.7 | 18.4 µM | 34.9 | 6.85 µM | 21 | 31 µM |  | 23.7 µM | > 50 | 13.7 µM
13 | O=S(=O)([O-])c1ccc(N=Cc2ccccc2[O-])cc1.O=S(=O)([O-])c1ccc(N=Cc2ccccc2[O-])cc1.[Co+2] | > 100 | > 100 | > 100 | > 100 |  | > 100 |  | > 100 | > 100 | 84 µM | > 100 | > 100 µM | 79.6 |  | > 100 | > 100 µM |  | > 100 µM | > 100 | > 100 µM
14 | CCCc1n(Cc2ccc3ccccc3c2)cc[n+]1Cc1ccc2ccccc2c1 | 2.85 | 2.26 | 16.1 | 2.53 | 2.19 | 3.33 | 3.78 | 2.53 |  | 1.1 µM | 0.869 | 3.69 µM | 1.1 | 0.926 µM | 1.34 |  | 0.938 | 1.07 µM | 2.49 | 1.13 µM
15 | C=C(CO)CC(O)c1cc(OC)ccc1OC (stereo unspecified) | > 100 | > 100 | > 100 | > 100 | > 100 | > 100 |  | > 100 | > 100 |  |  |  |  |  |  |  |  |  | > 100 | 
16 | Cc1c(O)c(N=Nc2nc3ccccc3s2)c2ccccc2c1O | > 50 | > 50 | > 50 | > 50 | > 50 | > 50 |  | > 50 | 43.2 | 18.3 µM | 28.4 | 23.3 µM | 33.5 | 29.7 µM | 25.9 | 17.3 µM |  | 16.7 µM | 39.7 | 12.5 µM
17 | CC(C)C12Cc3c(ccc4ccccc34)OC1(C)Oc1ccc3ccccc3c1C2 (stereo unspecified) | > 100 | > 100 |  | > 100 | > 100 | > 100 |  | > 100 | > 100 |  |  |  |  |  |  |  |  |  | > 100 | 
18 | COc1cc2c(c(OC)c1OC)-c1ccc(O)cc1[C@@H](NC(C)=O)CC2 |  | > 100 | > 100 |  | > 100 | > 100 | 0.0956 | > 100 | > 100 | 0.0261 µM | 0.0554 | 0.123 µM | 0.033 | 0.0803 µM | 0.0409 | 0.0423 µM | 0.0269 | 0.0897 µM |  | 
19 | CC(C)N(O)C(=N)c1ccccc1 | > 100 | > 100 |  | > 100 | > 100 | > 100 |  | > 100 | > 100 |  |  |  |  |  |  |  |  |  | > 100 | 
20 | CCN1CCC(Nc2ccnc3cc(Cl)ccc23)CC1 | 36 | > 100 | > 100 | 29.3 | > 100 | > 100 | > 100 | > 100 |  | 15.8 µM | 79.1 | 30.1 µM | 14.4 | 26.1 µM | 21.8 |  | 74.6 | 91.9 µM | > 100 | 32.9 µM
21 | N.N.N.N.N.NC(=O)[O-].[Co+3].[I-] | > 100 | > 100 | > 100 | > 100 | > 100 | > 100 | > 100 | > 100 | > 100 | > 100 µM | > 100 | > 100 µM | > 100 | > 100 µM | > 100 | > 100 µM | > 100 | > 100 µM |  | 
22 | CO[C@@H]1C=C[C@@]23c4cc5c(cc4CN(C[C@@H]2O)[C@H]3C1)OCO5 | > 100 | > 100 | > 100 | 31.5 | 80.9 | > 100 |  | 87.9 | 49.2 |  |  |  |  |  |  |  |  |  | > 100 | 
23 | N#CC(C(=O)C(=O)Nc1ccccc1)c1ccccc1 (stereo unspecified) | > 100 | > 100 | > 100 | > 100 | > 100 | > 100 |  | > 100 | > 100 |  |  |  |  |  |  |  |  |  |  | 
24 | COC(OC)c1cc2c(cc1C=O)OCO2 | > 100 | > 100 |  | > 100 |  | > 100 |  | > 100 | > 100 |  |  |  |  |  |  |  |  |  | > 100 | 
25 | NCCc1ccc(S(=O)(=O)F)cc1 | 70 | > 100 | > 100 | > 100 | > 100 | > 100 |  |  | > 100 | 14.8 µM | > 100 | 64.4 µM | > 100 | 51.1 µM | 52.8 | 90.9 µM |  |  | 98.2 | 37.8 µM
26 | O=c1c2ccc(S(=O)(=O)c3ccc4c(=O)n5c6ccccc6nc5c5cccc3c45)c3cccc(c32)c2nc3ccccc3n12 | > 100 | 37.9 | > 100 | > 100 | > 100 |  |  | > 100 | 65.6 |  |  |  |  |  |  |  |  |  | 34.5 | 
